“And” between values parts separate entries of the source, which are not always exact repeats. Equal values may be shown once. Read-outs that look alike come from different tables or passages of the source.

The conditions of series [1]: mouse, in vivo.
For series [2] the following is noted: mouse, in vivo, ip.
Series [3] relates to subcutaneously transplanted human liver cancer LM3 tumor. Set-up: species or system BALB/c nude mice. Particulars: mouse, in vivo, ip.
Series [4] shares this test system. Set-up: species or system BALB/c nude mice. The following applies: mouse, in vivo.

Take `O=P1(N(CCCl)CCCl)NCCCO1` (centres unmarked) [cyclophosphamide]: the “Spleen quality” value in series [1] amounted to 0.12 ± 0.02 g; in series [2] (10 mg/kg), 0.19 ± 0.01 g; in series [2] (20 mg/kg), 0.17 ± 0.01 g. Moreover, the entries for the “body weight at the end of the experiment” value in series [1], in series [2] (10 mg/kg) and in series [2] (20 mg/kg) were 18.91 ± 0.46 g, 18.58 ± 0.41 g and 17.54 ± 0.28 g, respectively. Besides, the results for the “Spleen index” value in series [2] (10 mg/kg) and in series [2] (20 mg/kg) were 1.08 ± 0.12 mg/g and 1.01 ± 0.08 mg/g, respectively. For the same compound, the “Tumor inhibition rate (%)” value in series [3] (10 mg/kg) was 33.21% and 33.21 ± 1.41%; in series [3] (20 mg/kg) it was 62.67% and 62.67 ± 5.81%; in series [4] it was 79.33% and 79.33 ± 0.10%. Also, the “Tumor weight” value in series [3] (10 mg/kg) is 0.50 ± 0.02 g; in series [3] (20 mg/kg), 0.28 ± 0.06 g; in series [4], 0.21 ± 0.10 g.

Values taken from patent US12472210B2 (priority 2019, dated 2025).
